Consider one compound from patent US20180136198A1, “SYNAPTIC VESICLE CYCLING ASSAYS AND SYSTEMS” (priority 2008, published 2018).

Common to all, as to format: cell-based
The test system of assay [1] is rat embryonic cortical neurons. The experiment in a line: synaptopHluorin fluorescence at whole-well level, Zeiss Axiovert Z1 inverted epifluorescence microscope. An excerpt: By introduction into a high percentage of neurons plated at high density within a well, synaptopHluorins were used to measure synaptic vesicle cycling at the whole-well, population level. One way synaptopHluorin was introduced into neurons was by viral infection. Viral delivery of synaptopHluorin was used to validate the ability to measure the synaptic vesicle cycle at the population level. Adeno-associated virus (MOI=1000) was used to deliver synaptopHluorin into rat embryonic cortical neurons plated in 96-well optically-clear plastic-bottomed plates (Nunc) at 11 days in vitro. At 21 days in vitro, neurons were imaged on a Zeiss Axiovert Z1 inverted epifluoresence microscope using low magnification optics (10×, 0.45 NA objective) insufficient to resolve individual synapses. Neurons in the presence or absence of external Ca^++ were treated with ionomycin, a calcium ionophore that triggers synaptic vesicle exocytosis and the resulting fluorescence of synaptopHluorin.

Assay [2] relates to Primary rat neuronal cultures. The experiment in a line: synaptopHluorin fluorescence in 96-well plates on the plate::vision plate reader. Particulars: Tyrode's solution, read every 2 seconds for 1 minute. As for the experimental part:
The plate::vision plate reader was evaluated for its ability to record the synaptic vesicle cycle in multiple wells in parallel. Primary rat neuronal cultures in 96-well plates were infected with the synaptopHluorin adeno-associated virus at 12 days in vitro. Culture medium was replaced with Tyrode's solution plus or minus external Ca^++. A baseline recording of fluorescence was measured in the entire plate on the plate::vision plate reader. Then, ionomycin was added to all wells, and fluorescence changes were measured every 2 seconds for 1 minute. […] These changes were similar to those observed when a similar experiment was performed on the Zeiss inverted epifluorescence microscope.

Assay [3] deals with rat embryonic cortical neurons. The experiment in a line: sypHy fluorescence (synaptic vesicle exocytosis) on Fluoroskan Ascent FL plate reader. The conditions noted are these: 10 uM; GFP-fluorescence recorded at 5 Hz; 33 DIV. As for the experimental part: It was determined that a Fluoroskan Ascent FL plate reader is capable of measuring aspects of synaptic vesicle cycling, e.g., exocytosis, in neuronal cells expressing a synaptophysin-pHluorin reporter. Rat embryonic cortical neurons were cultured in Greiner uClear 96-well plates. At 7 DIV, cultures were infected with sypHy-AAV. At 33 DIV, culture media was replaced with assay buffer, the plate was loaded onto the Fluoroskan Ascent FL plate reader, and GFP-fluorescence was recorded at 5 Hz. This plate reader uses a photomultiplier tube (PMT) to measure the fluorescence levels in a single well at a time. A baseline fluorescence level was determined, ionomycin (10 uM) was added to induce synaptic vesicle exocytosis, and the resulting change in fluorescence was measured on by plate reader. […] (FIG. 27.)

`C[C@H](CCC(=O)O)C[C@H](C)C[C@H](C)C(=O)/C=C(\O)[C@H](C)C[C@H](C)C/C=C/[C@@H](C)[C@@H](O)[C@@H](C)[C@@H](O)C[C@@H]1CC[C@@](C)([C@H]2CC[C@@](C)([C@@H](C)O)O2)O1` [ionomycin]: the “increase in synaptopHluorin signal” value in assay [1] (in the absence of external Ca++) is “about 3%”; in assay [1] (in the presence of external Ca++), “approximately 20%”. Further, the figures for the increase in fluorescence in assay [2] (absence of Ca++) and in assay [2] (in the presence of Ca++) were less than 5% and “about 20%”, respectively. Further, in assay [3], the “increase in fluorescence intensity” value is approximately 15%.
